These molecules were tested against HPK1 (Homo sapiens (Human), UniProt Q92918) (assay: HPK1 Kinase Binding Assay). Conditions: LanthaScreen tracer 222 binding, active HPK1, one hour incubation at 25° C.
Chain of HPK1 (Q92918 1-346 limits assumed): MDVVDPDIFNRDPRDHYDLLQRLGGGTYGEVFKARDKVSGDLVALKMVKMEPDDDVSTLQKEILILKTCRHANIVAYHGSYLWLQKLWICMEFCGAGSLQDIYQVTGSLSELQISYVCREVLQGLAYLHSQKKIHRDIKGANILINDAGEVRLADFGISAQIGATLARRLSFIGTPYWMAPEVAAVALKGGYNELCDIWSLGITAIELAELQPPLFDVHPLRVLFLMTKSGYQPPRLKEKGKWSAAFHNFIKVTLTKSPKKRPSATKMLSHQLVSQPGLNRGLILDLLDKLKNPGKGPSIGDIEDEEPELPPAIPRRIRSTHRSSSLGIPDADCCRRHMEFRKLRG
Experimental: A stock solution of 1 mM test compound was prepared in DMSO. The compound plate was prepared by 3-fold and 11-point serial dilutions. 0.1 μL of the compound in DMSO was transferred from the compound plate to the white 384 well polystyrene plates. The assay buffer contained 50 mM HEPES, pH 7.5, 0.01% Tween-20, 5 mM MgCl2, 0.01% BSA, and 5 mM DTT. 5 μL of 4 nM active HPK1 (SignalChem M23-11G) prepared in the buffer was added to the plate. The enzyme concentration given was based on the given stock concentration reported by the vender. 5 μL of 18 nM tracer 222 (ThermoFisher PV6121) and 4 nM LanthaScreen Eu-Anti GST antibody (ThermoFisher PV5595) were added. After one hour incubation at 25° C., the plates were read on a PHERAstar FS plate reader (BMG Labtech). Ki values were determined.
`COc1cccc(F)c1-c1nccc(C(=O)Nc2ccc3nn(C)cc3c2N(C)CCO)n1` [1, Peak 1] gave a Ki of no more than 100 nM.
`COc1cccc(F)c1-c1nccc(C(=O)Nc2ccc3c(cnn3C)c2N(C)C2CCN(C)CC2)n1` [Example 2, 2-(2-Fluoro-6-methoxyphenyl)-N-(1-methyl-4-(methyl(1-methylpiperidin-4-yl)amino)-1H-indazol-5-yl)pyrimidine-4-carboxamide] was tested, and the Ki was no more than 100 nM.
With `COc1cccc(F)c1-c1nccc(C(=O)Nc2ccc3c(cnn3C)c2N(C)C2CC2)n1` [Example 3, N-(4-(Cyclopropyl(methyl)amino)-1-methyl-1H-indazol-5-yl)-2-(2-fluoro-6-methoxyphenyl)pyrimidine-4-carboxamide] the Ki was no more than 100 nM.
In the case of `COc1cccc(F)c1-c1nccc(C(=O)Nc2ccc3c(cnn3C)c2N(C)C)n1` [Example 4, N-(4-(Dimethylamino)-1-methyl-1H-indazol-5-yl)-2-(2-fluoro-6-methoxyphenyl)pyrimidine-4-carboxamide], the Ki is reported as no more than 100 nM.
With `COc1cccc(F)c1-c1nccc(C(=O)Nc2ccc3c(cnn3C)c2N(C)Cc2ccccc2)n1` [Example 5, N-(4-(Benzyl(methyl)amino)-1-methyl-1H-indazol-5-yl)-2-(2-fluoro-6-methoxyphenyl)pyrimidine-4-carboxamide] the Ki was no more than 100 nM.
With `COc1cccc(F)c1-c1nccc(C(=O)Nc2ccc3c(cnn3C)c2N(C)Cc2cccnc2)n1` [Example 6, 2-(2-Fluoro-6-methoxyphenyl)-N-(1-methyl-4-(methyl(pyridin-3-ylmethyl)amino)-1H-indazol-5-yl)pyrimidine-4-carboxamide] the Ki was no more than 100 nM.
`COc1cccc(F)c1-c1nccc(C(=O)Nc2ccc3c(cnn3C)c2N(C)C2CCOCC2)n1` [Example 7] showed a Ki of no more than 100 nM.
Work on `COc1cccc(F)c1-c1nccc(C(=O)Nc2ccc3c(cnn3C)c2N(C)CC(C)(C)O)n1` [Example 8, 2-(2-Fluoro-6-methoxyphenyl)-N-(4-((2-hydroxy-2-methylpropyl)(methyl)amino)-1-methyl-1H-indazol-5-yl)pyrimidine-4-carboxamide] yielded a Ki of no more than 100 nM.
In the case of `COc1cccc(F)c1-c1nccc(C(=O)Nc2ccc3c(cnn3C)c2N(C)CC2CCCO2)n1` (stereo not drawn) [Example 9, 2-(2-Fluoro-6-methoxyphenyl)-N-(1-methyl-4-(methyl((tetrahydrofuran-2-yl)methyl)amino)-1H-indazol-5-yl)pyrimidine-4-carboxamide], the Ki is reported as no more than 100 nM.
For `COc1cccc(F)c1-c1nccc(C(=O)Nc2ccc3c(cnn3C)c2N(C)CC2(O)COC2)n1` [Example 10, 2-(2-Fluoro-6-methoxyphenyl)-N-(4-(((3-hydroxyoxetan-3-yl)methyl)(methyl)amino)-1-methyl-1H-indazol-5-yl)pyrimidine-4-carboxamide], the Ki was 500 to 5000 nM.
`COc1cccc(F)c1-c1nccc(C(=O)Nc2ccc3c(cnn3C)c2N(C)[C@H]2CCNC2)n1` [Example 11, (S)-2-(2-Fluoro-6-methoxyphenyl)-N-(1-methyl-4-(methyl(pyrrolidin-3-yl)amino)-1H-indazol-5-yl)pyrimidine-4-carboxamide] gave a Ki of no more than 100 nM.
Work on `COc1cccc(F)c1-c1nccc(C(=O)Nc2ccc3c(cnn3C)c2N(C)[C@H]2CCN(C(C)=O)C2)n1` [Example 12, (S)—N-(4-((1-acetylpyrrolidin-3-yl)(methyl)amino)-1-methyl-1H-indazol-5-yl)-2-(2-fluoro-6-methoxyphenyl)pyrimidine-4-carboxamide] yielded a Ki of no more than 100 nM.
`COc1cccc(F)c1-c1nccc(C(=O)Nc2ccc3c(cnn3C)c2N(C)[C@H]2CCN(S(C)(=O)=O)C2)n1` [Example 13, (S)-2-(2-Fluoro-6-methoxyphenyl)-N-(1-methyl-4-(methyl(1-(methylsulfonyl)pyrrolidin-3-yl)amino)-1H-indazol-5-yl)pyrimidine-4-carboxamide] was tested, and the Ki was no more than 100 nM.
`COc1cccc(F)c1-c1nccc(C(=O)Nc2ccc3c(cnn3C)c2N(C)[C@H]2CCN(C(=O)N(C)C)C2)n1` [Example 14, (S)—N-(4-((1-(Dimethylcarbamoyl)pyrrolidin-3-yl)(methyl)amino)-1-methyl-1H-indazol-5-yl)-2-(2-fluoro-6-methoxyphenyl)pyrimidine-4-carboxamide] gave a Ki of no more than 100 nM.
`CNCc1ccccc1-c1c(NC(=O)c2ccnc(-c3c(F)cccc3OC)n2)ccc2c1cnn2C` [Example 15, 2-(2-Fluoro-6-methoxyphenyl)-N-(1-methyl-4-(2-((methylamino)methyl)phenyl)-1H-indazol-5-yl)pyrimidine-4-carboxamide] was tested, and the Ki was no more than 100 nM.

Source: patent publication US10745388B2, “Indazole compounds and uses thereof” (Incyte Corporation, priority 2018, dated 2020)
